Measurements published in PMC5880945, “D-Arg^0-Bradykinin-Arg-Arg, a Latent Vasoactive Bradykinin B2 Receptor Agonist Metabolically Activated by Carboxypeptidases” (Frontiers in Pharmacology, 2018).
Entries after “also recorded” stand apart in the source; their conditions may differ. Square brackets hold non-standard residues; d marks the D form. Ends that are not written are not given here.

Key:
[1] = system: GFP-tagged rabbit B2R (B2R-GFP); assay: B2R-GFP endocytosis and recycling, epifluorescence microscopy, HEK 293 cells; assay type: cell-based; conditions: 30 min vs 3 h of stimulation
anesthetized rats [2] = system: anesthetized rats; design: method as in 2 sources, one per row (each row's own in cited_ref): ref Jean et al., 2016; Charest-Morin et al., 2017 ||| ref Jean et al., 2016; conditions: intravenous boluses; ref Jean et al., 2016; Charest-Morin et al., 2017; cited from earlier work
anesthetized rats [3] = assay: In vivo hemodynamics in anesthetized rats pretreated with icatibant or peptidase inhibitors; design: species or system male Sprague-Dawley rats; conditions: for Mean arterial blood pressure, basal after pre-treatment / Heart rate, basal after pre-treatment: 15 min after i.v. pretreatment, mean ± SEM, n = 10 icatibant, 9 enalaprilat, 8 Plummer’s, 10 combination; for Mean arterial blood pressure, basal after pre-treatment: untreated control 93.2 ± 3.3 (n = 13), ANOVA N.S.; for Heart rate, basal after pre-treatment: untreated control 352 ± 10 (n = 13), ANOVA P < 0.001, * icatibant, ** others
Method: All surgical and experimental procedures were reviewed and approved by the Animal Care and Handling Committee of Laval University, in accordance with the Canadian Council on Animal Care. Experiments were performed on male Sprague-Dawley rats (300–375 g) purchased from Charles River Laboratories (St-Constant, QC, Canada). The rats were housed in a light-controlled (12:12-h light-dark cycle (lights on at 0600)) and temperature-regulated room (22 ± 1°C). Animals had free access to normal chow diet and tap water. They were allowed to acclimate to their environmental conditions for 1 week prior to being studied. At the end of the acclimation period, the rats were anesthetised with sodium pentobarbital (50 mg kg^-1, i.p., supplemented as required) and had one catheter implanted into the right jugular vein [for intravenous (i.v.) injection] and one into the left femoral artery [for direct and continuous measurement of blood pressure and heart rate as previously described ([Jean et al., 2016])]. Experiments started at least 20 min following the end of surgery in anesthetised rats.
The mechanism subserving the cardiovascular responses to random i.v. injections of r-BK and r-BK-RR at the dose of 1.6 μg/kg, was evaluated in rats pretreated with specific antagonists. In these experiments, the rats were separated in four groups depending on the antagonist tested, and the cardiovascular responses to the peptides agonists were compared with those elicited in the untreated control group of rats. In the first group of treated rats, the long acting and selective B2R antagonist, icatibant (Hoe 140) (D-Arg-[Hyp^3, Thi^5, D-Tic^7, Oic^8]) bradykinin ([Hock et al., 1991]; [Wirth et al., 1991]; [Rhaleb et al., 1992]; [Marceau et al., 1994]) was intravenously administered as bolus (75 μg/kg, 0.1 ml) following a 10 min period of baseline measurements of heart rate and blood pressure. Fifteen minutes later, recording changes in blood pressure and heart rate elicited by i.v. injection of peptide vehicle (saline-BSA 0.1%) followed by random injections of r-BK and r-BK-RR, were made as described above. The next peptide was administered once all recorded cardiovascular parameters had returned to baseline after the previous injection. Further experiments were made in a second group of rats pretreated with the ACE inhibitor, enalaprilat. In these experiments, enalaprilat was intravenously administered as bolus ([…], 0.1 ml) 15 min before the i.v. injections of peptide vehicle and both customized peptides, as above. Further experiments were also carried out in rats pretreated with the Plummer’s inhibitor (mercaptomethyl-3-guanidinoethylthiopropanoic acid) a high affinity inhibitor of arginine carboxypeptidases that is an arginine analog ([Plummer and Ryan, 1981]). The inhibitor was intravenously administered as bolus (0.75 mg/kg, 0.1 ml) followed 15 min later by the i.v. injections of saline-BSA 0.1%, and then r-BK and -r-BK-RR (1.6 μg/kg) in random order. A fourth group of rats was pretreated with a combined i.v. injection of enalaprilat (0.1 mg/kg) and the Plummer’s inhibitor (0.75 mg/kg) 15 min before the randomized i.v. injections of both customized peptides, as above. The doses of different inhibitors were based on preliminary experiments and from previous studies performed by us and others ([Ishida et al., 1989]; [Wirth et al., 1991]; [Muto et al., 2003]; [Jean et al., 2016]). At the end of the experiments the rats were euthanized with an overdose of sodium pentobarbital (240 mg/kg, i.v.).
Results are presented as means ± SEM. Radioligand binding data were fitted by non-linear regression to a one-site competition equation using a least-square method (Prism 5.0, GraphPad Software Inc., San Diego, CA, United States) and IC50 values calculated from this procedure. […]

[4] = system: ACE (two separate catalytic sites); conditions: ref Araujo et al., 2000; cited from earlier work
Text: The source of enzyme was whole HEK 293a cells grown in 24-well plates and transfected as described with a vector coding for the human ACE-mCherry fusion protein, an active enzyme ([Charest-Morin an ...

[5] = system: human ACE-mCherry fusion protein; assay: Competition of a fluorogenic ACE substrate by synthetic kinins (recombinant ACE-mCherry); assay type: biochemical; conditions: enalaprilat 1 μM; 15 min, 37°C; fluorescence
Method: The source of enzyme was whole HEK 293a cells grown in 24-well plates and transfected as described with a vector coding for the human ACE-mCherry fusion protein, an active enzyme ([Charest-Morin and Marceau, 2016]). The culture medium was removed from cell wells, which were rinsed twice with PBS. The fluorogenic substrate (final concentration 20 μM), and, optionally, a competitor (BK, r-BK, or r-BK-RR in variable concentrations, or the ACE inhibitor enalaprilat 1 μM) were added in 250 μl PBS in each well; the plates were then incubated for 15 min at 37°C. At this point, the well supernatants were transferred in Eppendorf tubes, centrifuged 30 s at 12500 rpm to remove debris and 100 μl of this fluid transferred in wells of 96-well plate (black background) to read the fluorescence (excitation 320 nm, emission 420 nm) using a TECAN Infinite® 200 PRO microplate reader. Results were expressed as the percent of the fluorescence in wells containing ACE-mCherry and the substrate without competitors. Controls included mock-transfected cells and enalaprilat-treated cells.

[6] = biological target: T1, myc-tagged rat B2R construction (rat, UniProt P25023 1-396); assay: radioligand binding; competition of the binding of 3 nM [^3H]BK to adherent intact HEK 293 cells stably expressing myc-tagged rat B2R by unlabeled peptides; 0°C; peptidase inhibitors including captopril and PMSF; one-site competition fit; conditions: one partner purified
T1 construct: bradykinin B2 receptor, rat; also called rat myc-B2R; rat recombinant myc-B2R; source: HEK 293 cells stably expressing the construction, adherent intact cells
T1 sequence (looked up): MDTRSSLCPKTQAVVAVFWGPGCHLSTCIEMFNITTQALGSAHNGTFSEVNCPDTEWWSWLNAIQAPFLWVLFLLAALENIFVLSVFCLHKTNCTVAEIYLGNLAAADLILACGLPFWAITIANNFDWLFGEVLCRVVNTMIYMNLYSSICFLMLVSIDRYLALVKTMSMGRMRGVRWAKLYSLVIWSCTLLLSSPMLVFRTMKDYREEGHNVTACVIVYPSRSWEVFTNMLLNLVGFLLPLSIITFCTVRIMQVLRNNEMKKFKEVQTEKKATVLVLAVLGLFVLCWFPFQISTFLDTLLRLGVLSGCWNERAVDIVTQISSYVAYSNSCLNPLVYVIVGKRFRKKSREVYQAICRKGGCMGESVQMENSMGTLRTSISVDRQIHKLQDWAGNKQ

[7] = biological target: T2, endogenous B2R of the human isolated umbilical vein (human (endogenous in umbilical vein), UniProt P30411 1-391); assay: cell-based or functional assay
T2 sequence (looked up): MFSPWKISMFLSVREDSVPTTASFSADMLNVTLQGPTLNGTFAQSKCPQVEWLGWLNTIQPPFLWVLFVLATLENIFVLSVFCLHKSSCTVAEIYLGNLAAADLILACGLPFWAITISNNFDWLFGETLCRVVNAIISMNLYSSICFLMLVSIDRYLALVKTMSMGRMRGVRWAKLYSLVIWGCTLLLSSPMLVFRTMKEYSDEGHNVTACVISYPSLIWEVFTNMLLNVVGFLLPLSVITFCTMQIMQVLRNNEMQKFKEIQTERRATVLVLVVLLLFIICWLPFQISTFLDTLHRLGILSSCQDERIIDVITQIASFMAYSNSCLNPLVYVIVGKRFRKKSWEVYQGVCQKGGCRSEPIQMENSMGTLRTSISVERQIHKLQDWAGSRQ

For “D-Arg-[Hyp^3, Igl^5, Oic^7, Igl^8]-BK [B-9972, reference compound]”, the “persistence of B2R-GFP endocytosis, in words” value [1] is given as “persistent morphologic response; also recorded: prolonged endocytosis of B2R-GFP” and the “duration of action vs BK in vivo, in words” value (anesthetized rats [2]) is given as “not remarkably more longer acting than BK in vivo”.

For `N=C(N)NCCSCC(CS)C(=O)O` (stereo not shown) [Plummer’s inhibitor, mercaptomethyl-3-guanidinoethylthiopropanoic acid, reference compound], the “Mean arterial blood pressure, basal after pre-treatment” value (“Mean arterial blood pressure, basal” below) (anesthetized rats [3]) was 90.3 ± 3.6 and the “Heart rate, basal after pre-treatment” value (anesthetized rats [3]) was 407 ± 10^∗∗.

In the case of “Abz-Phe-Arg-Lys(Dnp)-Pro-OH [internally quenched fluorogenic ACE substrate]”, the “affinity for the two catalytic sites of ACE, in words” value [4] is given as “approximately equal low micromolar affinity”.

For `C[C@H](N[C@@H](CCc1ccccc1)C(=O)O)C(=O)N1CCC[C@H]1C(=O)O` [Enalaprilat, enalaprilat, reference compound], the “Mean arterial blood pressure, basal” value (anesthetized rats [3]) was 89.8 ± 4.1, the “Heart rate, basal after pre-treatment” value (anesthetized rats [3]) was 412 ± 11^∗∗ and the “hydrolysis of ACE substrate by ACE-expressing cells treated with inhibitor, in words” value [5] was “did not catalyze the reaction”.

In the case of “D-Arg-[Hyp3,Thi5,D-Tic7,Oic8]bradykinin [Icatibant, reference compound]”, the “Mean arterial blood pressure, basal” value (anesthetized rats [3]) is reported as 93.7 ± 3.3, the “Heart rate, basal after pre-treatment” value (anesthetized rats [3]) is reported as 396 ± 10^∗ and the “inhibition of hypotensive effects of r-BK and r-BK-RR, in words” value (anesthetized rats [3]; icatibant i.v. pretreatment, r-BK or r-BK-RR 1.6 μg/kg i.v.) is reported as “their effects were inhibited by icatibant”.

B1: D-Arg^0-BK (peptide)
peptide: [dR]RPPGFSPFR
notes: D-Arg^0, N-terminal extension (a D-residue); bradykinin, whole nonapeptide; also called r-BK; D-Arg^0-bradykinin; source: synthetic peptide (CanPeptide, Inc., solid-phase, ≥98.3% pure)
In the case of B1, the IC50 [6] is reported as 13.3 nM, the “contractile EC50, human isolated umbilical vein, control” value [7] is reported as 62.4 nM and the “contractile EC50, human isolated umbilical vein, with Plummer’s inhibitor 1 μM” value [7] is reported as 68.4 nM. For the same molecule, the “contractile EC50, human isolated umbilical vein, with enalaprilat 1 μM” value [7] was 61.6 nM and the “contractile EC50, human isolated umbilical vein, with enalaprilat 1 μM + Plummer’s inhibitor 1 μM” value [7] was 45.1 nM.

B2: D-Arg^0-BK-Arg-Arg (peptide)
peptide: [dR]RPPGFSPFRRR
notes: D-Arg^0, N-terminal extension (a D-residue); bradykinin, whole nonapeptide; Arg-Arg, C-terminal extension; also called r-BK-RR; D-Arg^0-Bradykinin-Arg-Arg; source: synthetic peptide (CanPeptide, Inc., solid-phase, ≥98.3% pure)
In the case of B2, the IC50 [6] is reported as 1050 nM, the “contractile EC50, human isolated umbilical vein, with enalaprilat 1 μM (ACE blockade)” value [7] is reported as 1510 nM and the “contractile EC50, human isolated umbilical vein, with enalaprilat 1 μM + Plummer’s inhibitor 1 μM (ACE blockade)” value [7] is reported as 1760 nM.
